Data from patent US11401271B2, “Fused heterocyclic compound, pyrazole-ring-containing fused heterocyclic compound, agricultural composition containing thereof, and method of using the composition” (SOUTH CHINA AGRICULTURAL UNIVERSITY, priority 2017, dated 2022).

Experiments:
Experiment in all cases: whole plant or invertebrate
Format in all cases: in vivo
Aphis craccivora = conditions: 500 ppm; wingless adults, immersion 5 seconds, counted after 24 hours
How it was run: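 Wingless adults feeding on bean sprouts were dipped with the sprouts for 5 s in 500 ppm compound in aqueous 0.05% Tween-80, air-dried, then held at 23° C. Dead aphids counted after 24 h, triplicate, with 0.05% Tween-80 as control. Mortality (%) = (control live − treated live)/control live × 100.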

Solenopsis invicta = conditions: 100 ppm, water test tube poison-feeding
How it was run: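 Fire ants fed compound by water test-tube poison-feeding at 100 ppm in aqueous 0.05% Tween-80/5% honey (from 10 g/L DMSO stock), kept at 25 °C. Live and dead ants counted at 24 and 72 h; mortality (%) calculated relative to live ants in the untreated control.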

Plutella xylostella = conditions: 500 ppm; 2nd-instar larvae, leaf immersion feeding
How it was run: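 Cabbage leaf discs dipped 5 s in compound at 500 ppm (0.05% Tween-80 aqueous), air-dried, fed to about 35 2nd-instar larvae at 28° C., triplicate. Dead larvae counted after 24 h; mortality (%) corrected against Tween-80 control.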

Spodoptera exigua = conditions: 500 ppm; 2nd-instar larvae, leaf immersion feeding
How it was run: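 Cabbage leaf discs dipped 5 s in 500 ppm compound (0.05% Tween-80 aqueous), air-dried, fed to about 35 2nd-instar larvae at 28° C, three replicates. Deaths counted at 24 h; mortality corrected against Tween-80 control.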

Compound | Aphis craccivora Mortality (%) (Aphis craccivora) | Solenopsis invicta Mortality (%) 24 h (Solenopsis invicta) [%] | Solenopsis invicta Mortality (%) 72 h (Solenopsis invicta) [%] | Plutella xylostella Mortality (%) (Plutella xylostella) | Spodoptera exigua Mortality (%) (Spodoptera exigua)
CC(=O)C1(C(=O)C(F)(F)F)Nc2c([S+]([O-])C(F)(F)F)c(C#N)nn2-c2cc(C(F)(F)F)cc(Cl)c21 (centres unmarked) [c-39] | 100 | 24 | 90 | 95 | 89
N#Cc1nn2c(c1[S+]([O-])C(F)(F)F)NC(CCCl)(C(=O)C(F)(F)F)c1c(Cl)cc(C(F)(F)F)cc1-2 (centres unmarked) [c-42] | 100 | 20 | 97 | 86 | 80
CC(=O)C1(CC(=O)C(F)(F)F)Nc2c([S+]([O-])C(F)(F)F)c(C#N)nn2-c2cc(C(F)(F)F)cc(Cl)c21 (centres unmarked) [c-47] | 100 | 35 | 99 | 90 | 89
COC(=O)CC1(C(=O)OC)Nc2c([S+]([O-])C(F)(F)F)c(C#N)nn2-c2cc(OC(F)(F)F)cc(Cl)c21 (centres unmarked) [c-224] | 100 | 25 | 100 | 99 | 95
COC(=O)CC1(C(=O)OC)Nc2c(OC(F)(F)F)c(C#N)nn2-c2c(Cl)cc(C(F)(F)F)cc21 (stereo not drawn) [d-3] | 100 | 21 | 87 | 100 | 98
COC(=O)CC1(C(=O)OC)Nc2c([S+]([O-])C(F)(F)F)c(C(C)=O)nn2-c2c(Cl)cc(C(F)(F)F)cc21 (stereo not drawn) [d-8] | 90 | 15 | 65 | 85 | 82
COC(=O)CC1(C(=O)OC)Nc2c([S+]([O-])C(F)(F)F)c(CN)nn2-c2c(Cl)cc(C(F)(F)F)cc21 (stereo not drawn) [d-9] | 96 | 21 | 77 | 82 | 79
COC(=O)CC1(C(=O)OC)Nc2c([S+](C)[O-])c(C#N)nn2-c2c(Cl)cc(C(F)(F)F)cc21 (stereo not drawn) [d-13] | 99 | 26 | 89 | 82 | 81
CC[S+]([O-])c1c(C#N)nn2c1NC(CC(=O)OC)(C(=O)OC)c1cc(C(F)(F)F)cc(Cl)c1-2 (stereo not drawn) [d-14] | 100 | 24 | 100 | 90 | 89
COC(=O)C1(CC(N)=O)Nc2c([S+]([O-])C(F)(F)F)c(C#N)nn2-c2c(Cl)cc(C(F)(F)F)cc21 (stereo not drawn) [d-20] | 100 | 14 | 100 | 100 | 100
COC(=O)C1(CC(=O)OCC(F)(F)F)Nc2c([S+]([O-])C(F)(F)F)c(C#N)nn2-c2c(Cl)cc(C(F)(F)F)cc21 (stereo not drawn) [d-27] | 100 | 14 | 100 | 100 | 100
COC(=O)C1(CC(C)=O)Nc2c([S+]([O-])C(F)(F)F)c(C#N)nn2-c2c(Cl)cc(C(F)(F)F)cc21 (stereo not drawn) [d-33] | 100 | 26 | 100 | 100 | 99
COC(=O)C1(CBr)Nc2c([S+]([O-])C(F)(F)F)c(C#N)nn2-c2c(Cl)cc(C(F)(F)F)cc21 (stereo not drawn) [d-34] | 100 | 25 | 93 | 90 | 95
COC(=O)C1(CC(F)(F)F)Nc2c([S+]([O-])C(F)(F)F)c(C#N)nn2-c2c(Cl)cc(C(F)(F)F)cc21 (stereo not drawn) [d-35] | 100 | 30 | 100 | 90 | 89
CCOC(=O)C1(CC(=O)OC(C(F)(F)F)C(F)(F)F)Nc2c([S+]([O-])C(F)(F)F)c(C#N)nn2-c2c(Cl)cc(C(F)(F)F)cc21 (stereo not drawn) [d-42] | 100 | 31 | 100 | 100 | 100
CC(=O)CC1(C(C)=O)Nc2c([S+]([O-])C(F)(F)F)c(C#N)nn2-c2c(Cl)cc(C(F)(F)F)cc21 (stereo not drawn) [d-46] | 100 | 14 | 90 | 95 | 90
CC(=O)C1(CC(F)(F)F)Nc2c([S+]([O-])C(F)(F)F)c(C#N)nn2-c2c(Cl)cc(C(F)(F)F)cc21 (stereo not drawn) [d-48] | 100 | 26 | 100 | 96 | 90
CC(=O)C1(CC(=O)C(F)(F)F)Nc2c([S+]([O-])C(F)(F)F)c(C#N)nn2-c2c(Cl)cc(C(F)(F)F)cc21 (stereo not drawn) [d-49] | 100 | 29 | 100 | 100 | 100
N#Cc1nn2c(c1[S+]([O-])C(F)(F)F)NC(CC(=O)C(F)(F)F)(C(=O)C(F)(F)F)c1cc(C(F)(F)F)cc(Cl)c1-2 (stereo not drawn) [d-50] | 100 | 26 | 93 | 100 | 90
N#Cc1nn2c(c1[S+]([O-])C(F)(F)F)NC(Cc1ccccc1)(C(=O)C(F)(F)F)c1cc(C(F)(F)F)cc(Cl)c1-2 (stereo not drawn) [d-52] | 100 | 24 | 100 | 100 | 100
COC(=O)CC1(C(=O)C(F)(F)F)Nc2c([S+]([O-])C(F)(F)F)c(C#N)nn2-c2c(Cl)cc(C(F)(F)F)cc21 (stereo not drawn) [d-54] | 100 | 21 | 99 | 100 | 99
N#CCC1(Cl)Nc2c([S+]([O-])C(F)(F)F)c(C#N)nn2-c2c(Cl)cc(C(F)(F)F)cc21 (stereo not drawn) [d-60] | 90 | 24 | 90 | 96 | 90
N#Cc1nn2c(c1[S+]([O-])C(F)(F)F)NC(Br)(CC(=O)C(F)(F)F)c1cc(C(F)(F)F)cc(Cl)c1-2 (stereo not drawn) [d-63] | 100 | 20 | 90 | 100 | 95
N#Cc1nn2c(c1[S+]([O-])C(F)(F)F)NC(C#N)(CC(F)(F)F)c1cc(C(F)(F)F)cc(Cl)c1-2 (stereo not drawn) [d-65] | 100 | 24 | 90 | 100 | 100
COC(=O)CC1(C#N)Nc2c([S+]([O-])C(F)(F)F)c(C#N)nn2-c2c(Cl)cc(C(F)(F)F)cc21 (stereo not drawn) [d-67] | 100 | 41 | 99 | 100 | 90
N#Cc1nn2c(c1[S+]([O-])C(F)(F)F)NC(CC(F)(F)F)(C(F)(F)F)c1cc(C(F)(F)F)cc(Cl)c1-2 (stereo not drawn) [d-69] | 100 | 44 | 100 | 90 | 86
N#CCC1(C(F)(F)F)Nc2c([S+]([O-])C(F)(F)F)c(C#N)nn2-c2c(Cl)cc(C(F)(F)F)cc21 (stereo not drawn) [d-70] | 99 | 20 | 98 | 91 | 90
CCCCOC(=O)CC1(C(=O)OCCCC)Nc2c([S+]([O-])C(F)(F)F)c(C#N)nn2-c2c(Cl)cc(C(F)(F)F)cc21 (stereo not drawn) [d-72] | 99 | 26 | 76 | 90 | 85
